# Patent US20230217926A1, “SELECTIVE HERBICIDES BASED ON SUBSTITUTED ISOXAZOLIN CARBOXAMIDES AND ISOXADIFEN-ETHYL” (BAYER AKTIENGESELLSCHAFT, priority 2020, published 2023)
# Where “and” joins values, the source holds several entries; their conditions need not be identical. Equal values may be shown once.
# Tests used:
# ZEAMA Sileno [1] = assay: Safener seed treatment, pre-emergence herbicide, crop damage; assay type: in vivo, maize; design: key to Reduction [Difference]: % crop damage without safener minus % damage with safener; settings: for Reduction [%] / Reduction [Difference]: isoxadifen-ethyl 0.25 g a.i./kg seed; for HER effect + SAF: isoxadifen-ethyl seed treatment 0.25 g a.i./kg seed; for HER effect: no safener
# Protocol: For the safener seed treatment, sufficient seeds of the respective crops (spring wheat, TRZAS; spring barley, HORVS; maize, ZEAMA) were weighed into screw top glass bottles approximately twice the volume of the seeds.
# The specified safeners, formulated as wettable powder (WP) were weighed out so that the specified rates (g a.i./kg seed) would be obtained, dissolved in water (1 ml water per 10 g of seeds), and added to the seeds to produce a slurry.
# The bottles were capped and then placed in an overhead shaker (set at medium speed for ca. 60 minutes) so that the seeds were evenly coated with the slurry. The bottles were uncapped and the seeds were either placed on paper and dried for an interval of 3-4 hours prior to sowing, or directly sown. Seeds were placed in sandy loam soil in pots of a diameter of 7-8 cm, and covered with soil.
# Pre-emergence application of the specified herbicides was done subsequently, on two sets of plants: a) seed treatment with safener, as described above
# The herbicides were formulated as WP and was sprayed onto the soil surface as an aqueous suspension at an equivalent water application rate of 300 l/ha.
# After application, the test plants were kept in the greenhouse under good growth conditions. At intervals up to 4 weeks after application (=28 days after treatment; DAT), % crop damage observed on the treated plants was scored visually in comparison to control plants that had not received any safener or herbicide treatment.
# Values in the table below are mean values of at least 2 replicates.
# Reduction[Difference]=herbicide damage without safener−herbicide damage with safener Reduction[%]=(Reduction[Difference]*100)/herbicide damage without safener […]
# c) Plant Species, Variety: ZEAMA Sileno, Safener (SAF): Isoxadifen-Ethyl
# ZEAMA Sileno [2] = assay: Tank-mix post-emergence crop damage, greenhouse, visual assessment; assay type: in vivo, maize; design: key to Reduction [Difference]: % points: herbicide damage without safener − damage with safener; settings: for HER effect + SAF / Reduction [%] / Reduction [Difference]: Final; for HER effect: no safener, Final assessment
# Protocol: Seeds of crops (spring wheat, TRZAS; spring barley, HORVS; maize, ZEAMA) were placed in sandy loam soil in peat pots, covered with soil and cultivated in a greenhouse under good growth conditions. Two to three weeks after sowing, the test plants were treated at the 1 to 3-leaf stage. The herbicide/safener active compound combinations according to the invention, formulated as wettable powders or emulsion concentrates, and, in parallel tests, the correspondingly formulated individual active compounds were sprayed onto the green parts of the plants in various dosages using an amount of water of 300 l/ha (converted).
# The pots were returned under good growing conditions in a glasshouse and a visual assessment of herbicidal effects was made at intervals from 1 to 3 weeks after herbicide application (DAT=days after treatment). Assessment was on a percentage basis in comparison with untreated control plants (0%=no injury, 100%=complete kill).
# Reduction[Difference]=herbicide damage without safener−herbicide damage with safener Reduction[%]=(Reduction[Difference]*100)/herbicide damage without safener
# a) Plant Species, Variety: ZEAMA Sileno, Safener (SAF): Isoxadifen-Ethyl
# [3] = HER 80 g a.i./ha pre-emergence, 14 DAT
# [4] = HER 8 g a.i./ha + isoxadifen-ethyl 50 g a.i./ha
# [5] = HER 8 g a.i./ha, isoxadifen-ethyl 50 g a.i./ha
# [6] = HER 32 g a.i./ha + isoxadifen-ethyl 100 g a.i./ha
# [7] = HER 32 g a.i./ha, isoxadifen-ethyl 100 g a.i./ha
# [8] = HER 40 g a.i./ha pre-emergence, 14 DAT
# [9] = HER 40 g a.i./ha pre-emergence, 26 DAT
# [10] = HER 2 g a.i./ha + isoxadifen-ethyl 50 g a.i./ha
# [11] = HER 2 g a.i./ha, isoxadifen-ethyl 50 g a.i./ha
# [12] = HER 2 g a.i./ha, 0%=no injury, 100%=complete kill
# [13] = HER 80 g a.i./ha pre-emergence, 26 DAT
Compound,HER effect + SAF (ZEAMA Sileno [2]; [4]),Reduction [%] (ZEAMA Sileno [2]; [5]),Reduction [Difference] (ZEAMA Sileno [2]; [5]),HER effect (ZEAMA Sileno [2]; HER 8 g a.i./ha),HER effect + SAF (ZEAMA Sileno [2]; [6]),Reduction [%] (ZEAMA Sileno [2]; [7]),Reduction [Difference] (ZEAMA Sileno [2]; [7]),HER effect (ZEAMA Sileno [2]; HER 32 g a.i./ha),also measured
CN(C)C(=O)SCCOC(=O)C1C=CC(NC(=O)C2(C)CC(c3cc(F)cc(F)c3)=NO2)C1 (centres unmarked) [Example 1.29],25%,58%,35,60%,25%,67%,50,75%,Reduction [%] (ZEAMA Sileno [1]; [3]): 33%; Reduction [Difference] (ZEAMA Sileno [1]; [3]): 20; HER effect + SAF (ZEAMA Sileno [1]; [3]): 40%; HER effect (ZEAMA Sileno [1]; [3]): 60%
CCOC(=O)C1=CCC(NC(=O)C2(C)CC(c3cccc(F)c3)=NO2)C1 (centres unmarked) [Example 1.59],–,–,–,–,10%,85%,57,67%,–
CCOC(=O)C1C=CC(NC(=O)C2(C(F)(F)F)CC(c3ccccc3)=NO2)C1 (centres unmarked) [Example 1.9],22%,72%,56,78%,22%,74%,63,85%,Reduction [%] (ZEAMA Sileno [1]; [3]): 83%; Reduction [Difference] (ZEAMA Sileno [1]; [3]): 25; HER effect + SAF (ZEAMA Sileno [1]; [3]): 5%; HER effect (ZEAMA Sileno [1]; [3]): 30%
COC(=O)C1=CC(NC(=O)C2(C)CC(c3cc(F)cc(F)c3)=NO2)CC1 (centres unmarked) [Example 1.63],40%,53%,45,85%,43%,51%,45,88%,Reduction [%] (ZEAMA Sileno [1]; [8]): 50%; Reduction [Difference] (ZEAMA Sileno [1]; [8]): 30; Reduction [%] (ZEAMA Sileno [1]; [9]): 100%; Reduction [Difference] (ZEAMA Sileno [1]; [9]): 25; HER effect + SAF (ZEAMA Sileno [1]; [8]): 30%; HER effect + SAF (ZEAMA Sileno [1]; [9]): 0%; HER effect (ZEAMA Sileno [1]; [8]): 60%; HER effect (ZEAMA Sileno [1]; [9]): 25%
COC(=O)C1OCCC1NC(=O)C1(C)CC(c2cc(F)cc(F)c2)=NO1 (centres unmarked) [Example 1.92],42%,56%,53,95%,38%,61%,59,97%,Reduction [%] (ZEAMA Sileno [1]; [8]): 93%; Reduction [Difference] (ZEAMA Sileno [1]; [8]): 70; Reduction [%] (ZEAMA Sileno [1]; [9]): 86%; Reduction [Difference] (ZEAMA Sileno [1]; [9]): 60; HER effect + SAF (ZEAMA Sileno [1]; [8]): 5%; HER effect + SAF (ZEAMA Sileno [1]; [9]): 10%; HER effect (ZEAMA Sileno [1]; [8]): 75%; HER effect (ZEAMA Sileno [1]; [9]): 70%
CCOC(=O)C1C=CC(NC(=O)C2(CF)CC(c3cc(F)cc(F)c3)=NO2)C1 (centres unmarked) [Example 1.17],20%,79%,75,95%,–,–,–,–,HER effect + SAF (ZEAMA Sileno [2]; [10]): 10%; Reduction [%] (ZEAMA Sileno [2]; [11]): 78%; Reduction [Difference] (ZEAMA Sileno [2]; [11]): 35; HER effect (ZEAMA Sileno [2]; [12]): 45%
C=CC1(C(=O)NC2COC(C(=O)OCCCl)C2)CC(c2cc(F)cc(F)c2)=NO1 (mixture of isomers) [Example 1.82],65% and 53%,28% and 43%,25 and 40,90% and 93%,75% and 55%,22% and 40%,21 and 37,96% and 92%,–
COC(=O)C1C=CC(NC(=O)C2(C)CC(c3cc(F)cc(F)c3)=NO2)C1 (centres unmarked) [Example 1.19],20%,50%,20,40%,–,–,–,–,–
C=CCOC(=O)C1CC(NC(=O)C2(C)CC(c3cc(F)cc(F)c3)=NO2)CO1 (mixture of isomers) [Example 1.75],23%,68%,50,73%,43%,51%,45,88%,–
C=CCOC(=O)C1CC(NC(=O)C2(C=C)CC(c3cc(F)cc(F)c3)=NO2)CO1 (mixture of isomers) [Example 1.83],28%,55%,34,62%,20%,76%,65,85%,–
C=CC1(C(=O)NC2COC(C(=O)OC)C2)CC(c2cc(F)cc(F)c2)=NO1 (centres unmarked) [Example 1.70],–,–,–,–,–,–,–,–,Reduction [%] (ZEAMA Sileno [1]; [8]): 44%; Reduction [Difference] (ZEAMA Sileno [1]; [8]): 35; Reduction [%] (ZEAMA Sileno [1]; [9]): 53%; Reduction [Difference] (ZEAMA Sileno [1]; [9]): 45; HER effect + SAF (ZEAMA Sileno [1]; [8]): 45%; HER effect + SAF (ZEAMA Sileno [1]; [9]): 40%; HER effect (ZEAMA Sileno [1]; [8]): 80%; HER effect (ZEAMA Sileno [1]; [9]): 85%; Reduction [%] (ZEAMA Sileno [1]; [3]): 26%; Reduction [Difference] (ZEAMA Sileno [1]; [3]): 25; Reduction [%] (ZEAMA Sileno [1]; [13]): 21%; Reduction [Difference] (ZEAMA Sileno [1]; [13]): 20; HER effect + SAF (ZEAMA Sileno [1]; [3]): 70%; HER effect + SAF (ZEAMA Sileno [1]; [13]): 75%; HER effect (ZEAMA Sileno [1]; [3]): 95%; HER effect (ZEAMA Sileno [1]; [13]): 95%; HER effect + SAF (ZEAMA Sileno [2]; [10]): 35%; Reduction [%] (ZEAMA Sileno [2]; [11]): 60%; Reduction [Difference] (ZEAMA Sileno [2]; [11]): 53; HER effect (ZEAMA Sileno [2]; [12]): 88%
COCCOC(=O)C1C=CC(NC(=O)C2(C(F)(F)F)CC(c3cc(F)cc(C#N)c3)=NO2)C1 (centres unmarked) [Example 1.2],65%,28%,25,90%,75%,22%,21,96%,Reduction [%] (ZEAMA Sileno [1]; [3]): 78%; Reduction [Difference] (ZEAMA Sileno [1]; [3]): 35; HER effect + SAF (ZEAMA Sileno [1]; [3]): 10%; HER effect (ZEAMA Sileno [1]; [3]): 45%
C=CC1(C(=O)NC2COC(C(=O)OC)C2)CC(c2cc(F)cc(F)c2)=NO1 (centres unmarked) [Example 1.69],33%,64%,59,92%,30%,68%,63,93%,Reduction [%] (ZEAMA Sileno [1]; [8]): 42%; Reduction [Difference] (ZEAMA Sileno [1]; [8]): 40; Reduction [%] (ZEAMA Sileno [1]; [9]): 28%; Reduction [Difference] (ZEAMA Sileno [1]; [9]): 25; HER effect + SAF (ZEAMA Sileno [1]; [8]): 55%; HER effect + SAF (ZEAMA Sileno [1]; [9]): 65%; HER effect (ZEAMA Sileno [1]; [8]): 95%; HER effect (ZEAMA Sileno [1]; [9]): 90%
C=CC1(C(=O)NC2COC(C(=O)OCCOC)C2)CC(c2cc(F)cc(F)c2)=NO1 (mixture of isomers) [Example 1.66],43%,55%,53,96%,47%,52%,50,97%,–
CC1(C(=O)NC2C=CC(C(=O)OCCSCc3ccccc3)C2)CC(c2cc(F)cc(F)c2)=NO1 (centres unmarked) [Example 1.27],–,–,–,–,30%,50%,30,60%,–
COC(=O)C1C=CC(NC(=O)C2(C)CC(c3cc(Cl)cc(C#N)c3)=NO2)C1 (mixture of isomers) [Example 1.23],30%,40%,20,50%,30%,57%,40,70%,–
